# According to article PMC8997165, “Transcriptional CDK Inhibitors as Potential Treatment Option for Testicular Germ Cell Tumors” (Cancers, 2022):
# Key:
# Type in all cases: cell-based, human
# MPAF cells = assay: XTT cell viability assay, MPAF fibroblast control; conditions: for IC50: XTT viability
# Description: (§1) The following cell lines were used 2102EP, 2102EP-R, NCCIT, NCCIT-R (all ECs), TCam2 (seminoma cell line), FS1 (Sertoli cell line) and MPAF (human adult fibroblast cell line). Cells were cultivated as described previously. In brief, the ECs were cultivated in Dulbecco’s modified Eagle’s medium (DMEM) supplemented with 10% fetal bovine serum (FBS), 1% penicillin–streptomycin and […] L-glutamine. FS1 cells were grown in DMEM supplemented with 20% FSB, 1% penicillin–streptomycin, 200 mM L-glutamine and 1% nonessential amino acids (NEAA). MPAF cells were cultured in DMEM supplemented with 10% FBS, 1% penicillin–streptomycin, 200 mM L-glutamine and 1% NEAA. TCam2 cell line was cultured in RPMI medium supplemented with 10% FBS, 1% penicillin–streptomycin and […] L-glutamine. All cell lines were kept at 37 °C and 7.5% CO2. 2102EP and NCCIT were a kind gift from Prof. Dr. L. Looijenga (Princess Máxima Center for Pediatric Oncology, Utrecht, The Netherlands). Cisplatin-resistant lines 2102EP-R and NCCIT-R were obtained from PD Dr. F. Honecker (Breast and Tumor Center, ZeTup Silberturm, St. Gallen, Switzerland). MPAFs were a kind gift from […] (Bonn University, Institute of Reconstructive Neurobiology, Bonn, Germany). FS1 cells were obtained from Prof. Dr. V. Schumacher (Boston Children’s Hospital, Department of Urology; Harvard Medical School, Department of Surgery, Boston, MA, USA).
# (§2) The assay was performed based on the reduction in XTT tetrazolium salt as described previously. In summary, 3000 cells were seeded per well of a 96-well cell culture plate in 100 µL of cell culture medium. The next day, cells were treated with CDK inhibitor or CDK degrader for 24/48/72 h. For XTT assay, 0.6 mg/mL XTT sodium salt was dissolved in cell culture medium (DMEM or RPMI) and supplemented with 25 µM electron carrier N-methyl dibenzopyrazine methyl sulfate (PMS). A total of 50 µL of XTT/PMS was added to each well and incubated for 4 h at 37 °C, 7.5% CO2. For readout, absorption was measured at 450 nm and 650 nm. Specific XTT signal (450 nm) was subtracted by nonspecific absorbance (650) and blank (cell culture medium). Averages of technical triplicates were calculated, and treated sample was referenced to the corresponding dimethyl sufoxide (DMSO) control. Experiment was repeated several times to obtain biological replicates. For statistical analysis, two-tailed Student’s t-test was applied.
# TGCT cell lines = assay: XTT cell viability assay, summarised over TGCT tumor cell lines
# Description: as §1, §2
# 2102EP cells = assay: XTT cell viability assay, 2102EP
# Description: as §1, §2
# 2102EP-R cells = assay: XTT cell viability assay, 2102EP-R (cisplatin-resistant)
# Description: as §1, §2
# NCCIT cells = assay: XTT cell viability assay, NCCIT
# Description: as §1, §2
# NCCIT-R cells = assay: XTT cell viability assay, NCCIT-R (cisplatin-resistant)
# Description: as §1, §2
# TCam2 cells = assay: XTT cell viability assay, TCam2
# Description: as §1, §2
# FS1 cells = assay: XTT cell viability assay, FS1 Sertoli control
# Description: as §1, §2
# [1] = test system: TGCT and control cell lines; assay: 7AAD/AnnexinV FACS apoptosis analysis, TGCT and control cell lines; conditions: 100 nM, 24 and 48 h
# Description: (§3) Cells were seeded in 6-well cell culture plates (1.5 × 10^5 cells/well). […] For cell cycle analysis, cells were harvested after 20 h of treatment and resuspended in PBS. Ice-cold methanol was added dropwise while shaking until 70% methanol v/v was reached. Cells were incubated for 2 h at 4 °C and subsequently washed twice with cold PBS. Staining (2 µg/mL Hoechst-33342, 50 µg/mL RNaseA in PBS) was performed for 30 min at 37 °C. The cell cycle distribution was measured in an FACS Canto (BD BioSciences, Heidelberg, Germany) and analyzed using FlowJo™ v10.8 Software (BD BioSciences, Heidelberg, Germany). For apoptosis analysis, PE AnnexinV Apoptosis Detection Kit with 7-AAD (BioLegend, San Diego, CA USA) was used according to the manufacturer’s manual. Measurement was performed in an FACS Canto while analysis was performed in the corresponding BD FACSDiva software^TM (BD BioSciences, Heidelberg, Germany). Two-tailed Student’s t-test was applied for calculation of significance.
# [2] = test system: TGCT and control cell lines; assay: Hoechst-FACS cell cycle analysis; conditions: 20 h; NVP2 and SY0351 10 nM, YKL-5-124 and THZ531 100 nM
# Description: as §3
smiles,measurement,setting,value
"CCc1cnn2c(NCc3ccc[n+]([O-])c3)cc(N3CCCC[C@H]3CCO)nc12 [Dinaciclib, dinaciclib]",sensitivity (XTT viability),MPAF cells,almost resistant
same,viability (XTT),"TGCT cell lines; EC cell lines (2102EP, 2102EP-R, NCCIT, NCCIT-R), 1 nM",strong decrease in viability
CN(C)C/C=C/C(=O)Nc1ccc(C(=O)N2CCC[C@@H](Nc3ncc(Cl)c(-c4c[nH]c5ccccc45)n3)C2)cc1 [THZ531],IC50,"2102EP cells; Homo sapiens, 24 h",> 1000 nM
same,IC50,"2102EP cells; Homo sapiens, 48 h",180 nM
same,IC50,"2102EP cells; Homo sapiens, 72 h",74.5 nM
same,IC50,"2102EP-R cells; Homo sapiens, 24 h",> 1000 nM
same,IC50,"2102EP-R cells; Homo sapiens, 48 h",228 nM
same,IC50,"2102EP-R cells; Homo sapiens, 72 h",164 nM
same,IC50,"NCCIT cells; Homo sapiens, 24 h",> 1000 nM
same,IC50,"NCCIT cells; Homo sapiens, 48 h",> 1000 nM
same,IC50,"NCCIT cells; Homo sapiens, 72 h",96.6 nM
same,IC50,"NCCIT-R cells; Homo sapiens, 24 h",> 1000 nM
same,IC50,"NCCIT-R cells; Homo sapiens, 48 h",> 1000 nM
same,IC50,"NCCIT-R cells; Homo sapiens, 72 h",137 nM
same,IC50,"TCam2 cells; Homo sapiens, TCam2, 24 h",> 1000 nM
same,IC50,"TCam2 cells; Homo sapiens, TCam2, 48 h",> 1000 nM
same,IC50,"TCam2 cells; Homo sapiens, TCam2, 72 h",> 1000 nM
same,IC50,"FS1 cells; Homo sapiens, FS1, 24 h",> 1000 nM
same,IC50,"FS1 cells; Homo sapiens, FS1, 48 h",> 1000 nM
same,IC50,"FS1 cells; Homo sapiens, FS1, 72 h",> 1000 nM
same,IC50,"MPAF cells; Homo sapiens, Fibroblast, 24 h",> 1000 nM
same,IC50,"MPAF cells; Homo sapiens, Fibroblast, 48 h",> 1000 nM
same,IC50,"MPAF cells; Homo sapiens, Fibroblast, 72 h",> 1000 nM
same,apoptosis induction,[1]; tumor cell lines,moderate increase in apoptosis induction
same,effect on cell cycle,[2],only mild effects on the cell cycle
CC(C)(C)c1cnc(CSc2cnc(NC(=O)C3CCN(CC(=O)NCCOCCOCCOCCNc4cccc5c4C(=O)N(C4CCC(=O)NC4=O)C5=O)CC3)s2)o1 (centres unmarked) [THAL-SNS-032],IC50,"2102EP cells; Homo sapiens, 24 h",164 nM
same,IC50,"2102EP cells; Homo sapiens, 48 h",39.5 nM
same,IC50,"2102EP cells; Homo sapiens, 72 h",34.8 nM
same,IC50,"NCCIT cells; Homo sapiens, 24 h",149 nM
same,IC50,"NCCIT cells; Homo sapiens, 48 h",50.6 nM
same,IC50,"NCCIT cells; Homo sapiens, 72 h",30.1 nM
same,IC50,"TCam2 cells; Homo sapiens, TCam2, 24 h",140 nM
same,IC50,"TCam2 cells; Homo sapiens, TCam2, 48 h",76.7 nM
same,IC50,"TCam2 cells; Homo sapiens, TCam2, 72 h",39.6 nM
same,IC50,"FS1 cells; Homo sapiens, FS1, 24 h",> 1000 nM
same,IC50,"FS1 cells; Homo sapiens, FS1, 48 h",> 1000 nM
same,IC50,"FS1 cells; Homo sapiens, FS1, 72 h",> 1000 nM
same,viability (XTT),MPAF cells; 1 and 10 nM,not affected
same,viability (XTT),MPAF cells; 100 and 500 nM,minimal decrease in viability
same,IC50,"MPAF cells; Homo sapiens, Fibroblast, 24 h",> 1000 nM
same,IC50,"MPAF cells; Homo sapiens, Fibroblast, 48 h",> 1000 nM
same,IC50,"MPAF cells; Homo sapiens, Fibroblast, 72 h",> 1000 nM
same,IC50,"TGCT cell lines; Homo sapiens, 72 h, tumor (TGCT) cell lines, XTT viability, read-out: IC50 at 72 h, range over tumor cell lines",30 to 40 nM
C=CC(=O)Nc1ccc(C(=O)Nc2[nH]nc3c2CN(C(=O)N[C@H](CN(C)C)c2ccccc2)C3(C)C)cc1 [YKL-5-124],IC50,2102EP cells; 24 h,318 nM
same,IC50,2102EP cells; 48 h,43.6 nM
same,IC50,2102EP cells; 72 h,17.2 nM
same,IC50,2102EP-R cells; 24 h,> 1000 nM
same,IC50,2102EP-R cells; 48 h,30.5 nM
same,IC50,2102EP-R cells; 72 h,23.6 nM
same,IC50,NCCIT cells; 24 h,> 1000 nM
same,IC50,NCCIT cells; 48 h,> 1000 nM
same,IC50,NCCIT cells; 72 h,121 nM
same,IC50,NCCIT-R cells; 24 h,> 1000 nM
same,IC50,NCCIT-R cells; 48 h,> 1000 nM
same,IC50,NCCIT-R cells; 72 h,178 nM
same,IC50,"TCam2 cells; TCam2, 24 h",> 1000 nM
same,IC50,"TCam2 cells; TCam2, 48 h",> 1000 nM
same,IC50,"TCam2 cells; TCam2, 72 h",263 nM
same,IC50,"FS1 cells; FS1, 24 h",> 1000 nM
same,IC50,"FS1 cells; FS1, 48 h",> 1000 nM
same,IC50,"FS1 cells; FS1, 72 h",95.2 nM
same,IC50,MPAF cells; 24 h,> 1000 nM
same,IC50,MPAF cells; 48 h,> 1000 nM
same,IC50,MPAF cells; 72 h,> 1000 nM
same,viability (XTT),MPAF cells; highest concentration tested (500 nM),unaffected
same,"apoptosis, fold change over DMSO control",[1],up to 2.8 fold
same,"apoptosis, treatment vs control",[1]; FS1 and MPAF cells,almost no difference between treatment and control
same,effect on cell cycle,[2],only mild effects on the cell cycle
